Measurements published in publication PMC9330537, “DCLK1 promotes colorectal cancer stemness and aggressiveness via the XRCC5/COX2 axis” (Theranostics, 2022).

Molecular target: T1, DCLK1 (Doublecortin-like kinase 1) (Homo sapiens, UniProt O15075)
T1 sequence (O15075 1-740): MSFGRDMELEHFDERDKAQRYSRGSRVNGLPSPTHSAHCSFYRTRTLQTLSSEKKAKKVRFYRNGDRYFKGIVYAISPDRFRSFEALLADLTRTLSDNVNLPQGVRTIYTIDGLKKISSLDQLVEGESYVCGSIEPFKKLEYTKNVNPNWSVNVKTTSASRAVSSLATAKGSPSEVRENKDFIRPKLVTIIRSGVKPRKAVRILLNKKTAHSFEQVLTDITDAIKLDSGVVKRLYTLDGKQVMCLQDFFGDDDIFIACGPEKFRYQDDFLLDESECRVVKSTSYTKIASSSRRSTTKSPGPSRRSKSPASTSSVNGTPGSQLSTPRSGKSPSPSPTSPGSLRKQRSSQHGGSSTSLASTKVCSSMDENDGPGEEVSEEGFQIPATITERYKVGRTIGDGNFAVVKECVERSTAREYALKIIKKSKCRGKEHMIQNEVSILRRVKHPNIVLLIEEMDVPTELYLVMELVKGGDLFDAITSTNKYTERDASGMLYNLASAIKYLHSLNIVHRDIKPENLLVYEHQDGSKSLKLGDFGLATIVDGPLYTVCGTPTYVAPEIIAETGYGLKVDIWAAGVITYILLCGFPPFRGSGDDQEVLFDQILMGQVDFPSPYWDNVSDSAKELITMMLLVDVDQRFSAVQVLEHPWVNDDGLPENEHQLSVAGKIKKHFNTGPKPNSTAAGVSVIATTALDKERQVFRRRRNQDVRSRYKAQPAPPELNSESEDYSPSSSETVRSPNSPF
Experiment: DCLK1 kinase activity assay, dose response
Format: biochemical

IC50: 143 nM
Structure (SMILES): COc1cc(N2CCN(C)CC2)ccc1Nc1ncc2c(n1)N(C)c1ccccc1C(=O)N2CC(F)(F)F [DCLK1-IN-1]
